# Test results: paper PMC10382584, “Macrocyclization of linear molecules by deep learning to facilitate macrocyclic drug candidates discovery” (Nature Communications, 2023)
# Key:
# Assay in all cases: biochemical
# Parameters in all cases: DiscoveRx KINOMEscan competition binding, percent of DMSO control signal at 100 nM
# Settings in all cases: read-out: Fig. 4a / Percent Control / Compound 1; percent of DMSO control, competition binding
# PIK3C2B = PIK3C2B (Homo sapiens, UniProt O00750)
# JNK2 = target: T1, JNK2 (Homo sapiens, UniProt P45984)
# T1 construct: gene MAPK9
# MKNK1 = MKNK1 (Homo sapiens, UniProt Q9BUB5)
# PIM2 = PIM2 (Homo sapiens, UniProt Q9P1W9)
# RET(M918T) = RET(M918T) (Homo sapiens, UniProt P07949, M918T)
# FLT3(ITD,D835V) = FLT3(ITD,D835V) (Homo sapiens, UniProt P36888, D835V/ITD)
# PIK4CB = target: T2, PIK4CB (Homo sapiens, UniProt Q9UBF8)
# T2 construct: gene PI4KB
# T2 sequence (Q9UBF8 whole entry): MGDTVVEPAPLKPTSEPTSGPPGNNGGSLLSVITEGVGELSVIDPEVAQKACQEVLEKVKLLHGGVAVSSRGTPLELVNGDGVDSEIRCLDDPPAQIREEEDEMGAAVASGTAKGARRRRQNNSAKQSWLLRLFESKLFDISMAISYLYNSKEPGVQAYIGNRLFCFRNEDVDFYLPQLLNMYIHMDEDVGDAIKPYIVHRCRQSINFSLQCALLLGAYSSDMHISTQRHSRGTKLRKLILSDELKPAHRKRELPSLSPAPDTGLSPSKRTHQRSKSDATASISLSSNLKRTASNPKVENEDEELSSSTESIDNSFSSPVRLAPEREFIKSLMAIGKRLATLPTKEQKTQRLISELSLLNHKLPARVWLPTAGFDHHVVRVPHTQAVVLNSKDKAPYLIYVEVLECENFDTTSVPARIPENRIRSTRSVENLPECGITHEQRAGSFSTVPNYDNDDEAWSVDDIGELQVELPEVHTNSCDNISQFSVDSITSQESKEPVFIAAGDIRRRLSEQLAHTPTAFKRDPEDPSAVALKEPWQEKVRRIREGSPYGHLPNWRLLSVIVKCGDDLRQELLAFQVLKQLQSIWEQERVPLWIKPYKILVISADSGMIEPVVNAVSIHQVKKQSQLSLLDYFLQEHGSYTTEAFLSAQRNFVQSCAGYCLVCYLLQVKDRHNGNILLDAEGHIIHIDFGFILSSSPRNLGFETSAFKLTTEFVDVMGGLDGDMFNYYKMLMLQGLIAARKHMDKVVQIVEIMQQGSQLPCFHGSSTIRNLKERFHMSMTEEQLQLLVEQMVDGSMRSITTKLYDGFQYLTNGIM
# ERK8 = target: T3, ERK8 (Homo sapiens, UniProt Q8TD08)
# T3 construct: gene MAPK15
# T3 sequence (Q8TD08 whole entry): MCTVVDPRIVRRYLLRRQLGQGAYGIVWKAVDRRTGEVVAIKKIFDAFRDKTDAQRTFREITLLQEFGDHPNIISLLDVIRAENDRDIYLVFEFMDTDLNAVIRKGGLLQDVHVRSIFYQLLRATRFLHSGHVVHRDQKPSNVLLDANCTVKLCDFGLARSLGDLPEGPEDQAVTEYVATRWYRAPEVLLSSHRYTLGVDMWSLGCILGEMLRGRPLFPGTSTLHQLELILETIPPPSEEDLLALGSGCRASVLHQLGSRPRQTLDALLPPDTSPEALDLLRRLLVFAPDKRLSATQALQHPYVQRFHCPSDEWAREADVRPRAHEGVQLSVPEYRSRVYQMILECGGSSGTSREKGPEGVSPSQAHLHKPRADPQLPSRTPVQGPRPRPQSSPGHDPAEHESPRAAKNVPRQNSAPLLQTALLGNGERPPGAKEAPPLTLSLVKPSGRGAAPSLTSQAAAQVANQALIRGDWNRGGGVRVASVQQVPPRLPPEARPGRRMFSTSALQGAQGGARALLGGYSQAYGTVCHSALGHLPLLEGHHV
# ROCK1 = ROCK1 (Homo sapiens, UniProt Q13464)
# DRAK2 = target: T4, DRAK2 (Homo sapiens, UniProt O94768)
# T4 construct: gene STK17B
# T4 sequence (O94768 whole entry): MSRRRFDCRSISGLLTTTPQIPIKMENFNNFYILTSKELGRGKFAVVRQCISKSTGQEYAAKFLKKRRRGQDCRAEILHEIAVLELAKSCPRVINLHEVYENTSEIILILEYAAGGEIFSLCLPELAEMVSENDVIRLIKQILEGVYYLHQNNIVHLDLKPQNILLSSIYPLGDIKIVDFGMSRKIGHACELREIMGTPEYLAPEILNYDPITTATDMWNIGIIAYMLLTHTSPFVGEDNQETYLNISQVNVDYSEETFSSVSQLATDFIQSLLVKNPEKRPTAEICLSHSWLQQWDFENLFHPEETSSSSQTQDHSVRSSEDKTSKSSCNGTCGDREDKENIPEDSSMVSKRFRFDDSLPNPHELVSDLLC
# ANKK1 = ANKK1 (Homo sapiens, UniProt Q8NFD2)
# p38-delta = target: T5, p38-delta (Homo sapiens, UniProt O15264)
# T5 construct: gene MAPK13
# CDK4 = CDK4 (Homo sapiens, UniProt P11802)
# CDK4, sequence (P11802 whole entry): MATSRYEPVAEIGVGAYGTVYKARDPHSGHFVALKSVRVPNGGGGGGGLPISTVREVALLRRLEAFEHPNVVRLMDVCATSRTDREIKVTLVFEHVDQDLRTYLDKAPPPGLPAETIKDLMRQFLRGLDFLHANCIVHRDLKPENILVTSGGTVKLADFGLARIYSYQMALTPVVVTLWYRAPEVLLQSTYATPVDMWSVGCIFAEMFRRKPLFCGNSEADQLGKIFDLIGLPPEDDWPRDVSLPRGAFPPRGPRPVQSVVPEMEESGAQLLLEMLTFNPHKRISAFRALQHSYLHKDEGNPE
# BRSK2 = BRSK2 (Homo sapiens, UniProt Q8IWQ3)
# BRSK2, sequence (Q8IWQ3 whole entry): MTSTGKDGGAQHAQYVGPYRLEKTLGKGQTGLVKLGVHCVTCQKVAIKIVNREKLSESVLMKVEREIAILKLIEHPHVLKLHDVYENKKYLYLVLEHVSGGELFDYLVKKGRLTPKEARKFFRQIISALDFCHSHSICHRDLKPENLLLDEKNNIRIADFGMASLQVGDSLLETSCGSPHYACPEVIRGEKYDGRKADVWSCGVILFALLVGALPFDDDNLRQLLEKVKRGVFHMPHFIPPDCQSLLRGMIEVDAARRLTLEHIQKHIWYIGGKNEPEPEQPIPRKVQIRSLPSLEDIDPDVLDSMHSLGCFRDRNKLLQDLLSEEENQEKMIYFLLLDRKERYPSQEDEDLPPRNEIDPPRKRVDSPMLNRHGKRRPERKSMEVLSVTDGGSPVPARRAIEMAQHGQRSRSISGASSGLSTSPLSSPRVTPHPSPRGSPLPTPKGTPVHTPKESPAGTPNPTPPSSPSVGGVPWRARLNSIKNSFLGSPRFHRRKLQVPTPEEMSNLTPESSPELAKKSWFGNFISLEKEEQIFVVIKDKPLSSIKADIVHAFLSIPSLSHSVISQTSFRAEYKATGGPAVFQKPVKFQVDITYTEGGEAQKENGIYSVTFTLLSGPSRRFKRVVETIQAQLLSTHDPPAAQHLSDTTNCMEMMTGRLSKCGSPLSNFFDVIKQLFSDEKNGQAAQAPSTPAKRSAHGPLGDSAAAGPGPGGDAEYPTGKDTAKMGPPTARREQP
# TTK = TTK (Homo sapiens, UniProt P33981)
# TTK, sequence (P33981 whole entry): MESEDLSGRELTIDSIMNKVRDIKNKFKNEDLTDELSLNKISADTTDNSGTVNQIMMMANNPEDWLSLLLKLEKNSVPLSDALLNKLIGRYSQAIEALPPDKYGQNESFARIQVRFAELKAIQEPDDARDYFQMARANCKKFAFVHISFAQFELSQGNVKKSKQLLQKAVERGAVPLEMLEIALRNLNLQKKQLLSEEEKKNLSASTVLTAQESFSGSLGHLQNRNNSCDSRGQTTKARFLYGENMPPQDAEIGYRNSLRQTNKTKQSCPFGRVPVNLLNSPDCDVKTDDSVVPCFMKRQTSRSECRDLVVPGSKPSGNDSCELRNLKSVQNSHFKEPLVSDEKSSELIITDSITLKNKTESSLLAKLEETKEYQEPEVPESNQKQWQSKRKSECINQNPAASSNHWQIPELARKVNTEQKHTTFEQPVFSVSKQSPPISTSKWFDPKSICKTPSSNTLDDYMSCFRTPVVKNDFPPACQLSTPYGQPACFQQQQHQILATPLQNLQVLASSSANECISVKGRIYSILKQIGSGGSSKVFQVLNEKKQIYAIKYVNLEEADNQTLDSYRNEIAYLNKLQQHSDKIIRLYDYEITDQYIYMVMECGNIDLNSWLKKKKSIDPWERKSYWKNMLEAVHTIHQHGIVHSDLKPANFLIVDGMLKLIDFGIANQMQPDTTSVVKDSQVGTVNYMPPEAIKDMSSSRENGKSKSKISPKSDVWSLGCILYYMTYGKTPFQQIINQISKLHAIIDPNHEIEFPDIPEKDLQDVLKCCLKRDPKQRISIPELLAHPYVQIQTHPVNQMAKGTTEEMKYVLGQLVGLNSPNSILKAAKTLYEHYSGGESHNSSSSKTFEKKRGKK
# PRKD3 = PRKD3 (Homo sapiens, UniProt O94806)
# TSSK3 = TSSK3 (Homo sapiens, UniProt Q96PN8)
# CDK3 = CDK3 (Homo sapiens, UniProt Q00526)
# MELK = MELK (Homo sapiens, UniProt Q14680)
# VRK2 = VRK2 (Homo sapiens, UniProt Q86Y07)
# ADCK4 = target: T6, ADCK4 (Homo sapiens, UniProt Q96D53)
# T6 construct: gene COQ8B
# [1] = target: T7, ABL1(E255K)-phosphorylated (Homo sapiens, UniProt P00519, E255K)
# T7 construct: phosphorylated
# AURKC = AURKC (Homo sapiens, UniProt Q9UQB9)
# LATS2 = LATS2 (Homo sapiens, UniProt Q9NRM7)
# LATS2, sequence (Q9NRM7 whole entry): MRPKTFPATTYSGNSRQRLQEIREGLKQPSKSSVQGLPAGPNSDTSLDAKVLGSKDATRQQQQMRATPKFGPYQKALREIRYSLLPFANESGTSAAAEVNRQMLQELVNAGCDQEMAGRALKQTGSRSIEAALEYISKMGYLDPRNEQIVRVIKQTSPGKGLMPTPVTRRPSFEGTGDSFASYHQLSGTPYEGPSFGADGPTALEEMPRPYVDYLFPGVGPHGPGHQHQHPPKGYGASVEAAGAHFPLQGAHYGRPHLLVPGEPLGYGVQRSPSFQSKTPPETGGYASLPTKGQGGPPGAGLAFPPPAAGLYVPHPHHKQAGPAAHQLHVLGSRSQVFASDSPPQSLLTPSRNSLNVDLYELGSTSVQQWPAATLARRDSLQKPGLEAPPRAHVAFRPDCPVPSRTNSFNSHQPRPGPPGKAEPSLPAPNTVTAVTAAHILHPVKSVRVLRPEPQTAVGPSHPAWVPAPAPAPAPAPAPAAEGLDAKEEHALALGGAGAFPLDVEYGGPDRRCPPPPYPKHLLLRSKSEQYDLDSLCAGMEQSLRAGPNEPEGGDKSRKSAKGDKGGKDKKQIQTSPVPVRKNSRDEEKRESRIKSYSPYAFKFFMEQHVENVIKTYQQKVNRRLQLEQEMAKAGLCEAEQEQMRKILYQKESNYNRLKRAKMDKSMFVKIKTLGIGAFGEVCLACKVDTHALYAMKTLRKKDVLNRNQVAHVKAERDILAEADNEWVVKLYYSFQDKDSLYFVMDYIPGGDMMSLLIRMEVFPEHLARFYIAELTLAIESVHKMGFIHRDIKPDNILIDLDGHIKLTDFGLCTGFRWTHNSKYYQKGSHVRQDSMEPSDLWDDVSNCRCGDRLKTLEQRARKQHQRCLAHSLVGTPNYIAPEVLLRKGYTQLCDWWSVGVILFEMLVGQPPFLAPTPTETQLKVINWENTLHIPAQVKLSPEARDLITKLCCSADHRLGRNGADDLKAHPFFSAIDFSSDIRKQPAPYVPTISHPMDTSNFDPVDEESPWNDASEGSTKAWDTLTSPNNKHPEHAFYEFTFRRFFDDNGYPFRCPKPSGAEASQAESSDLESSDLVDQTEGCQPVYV
# MEK6 = target: T8, MEK6 (Homo sapiens, UniProt P52564)
# T8 construct: gene MAP2K6
# T8 sequence (P52564 whole entry): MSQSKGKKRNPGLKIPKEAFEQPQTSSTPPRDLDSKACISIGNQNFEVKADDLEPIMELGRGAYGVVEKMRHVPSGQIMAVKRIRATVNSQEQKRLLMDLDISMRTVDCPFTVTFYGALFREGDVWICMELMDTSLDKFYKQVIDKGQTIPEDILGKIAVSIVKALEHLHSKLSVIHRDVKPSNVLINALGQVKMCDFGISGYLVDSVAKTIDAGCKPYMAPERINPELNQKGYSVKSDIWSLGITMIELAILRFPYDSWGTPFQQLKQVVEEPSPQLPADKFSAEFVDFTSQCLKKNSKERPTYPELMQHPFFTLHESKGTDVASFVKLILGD
# 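Further: KINOMEscan kinase panel binding assay, signal normalized between DMSO as 100% and a positive control compound as 0%.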
smiles,measurement,setting,value
Cc1cnc2nc1Nc1cccc(c1)COCc1cc(ccc1OCCN1CCCC1)N2 [Compound 1],remaining binding at 0.1 µM,PIK3C2B,97%
same,remaining binding at 0.1 µM,JNK2,50%
same,remaining binding at 0.1 µM,MKNK1,93%
same,remaining binding at 0.1 µM,PIM2,100%
same,remaining binding at 0.1 µM,RET(M918T),96%
same,remaining binding at 0.1 µM,"FLT3(ITD,D835V)",2.1%
same,remaining binding at 0.1 µM,PIK4CB,79%
same,remaining binding at 0.1 µM,ERK8,99%
same,remaining binding at 0.1 µM,ROCK1,88%
same,remaining binding at 0.1 µM,DRAK2,100%
same,remaining binding at 0.1 µM,ANKK1,86%
same,remaining binding at 0.1 µM,p38-delta,100%
same,remaining binding at 0.1 µM,CDK4,96%
same,remaining binding at 0.1 µM,BRSK2,94%
same,remaining binding at 0.1 µM,TTK,95%
same,remaining binding at 0.1 µM,PRKD3,100%
same,remaining binding at 0.1 µM,TSSK3,78%
same,remaining binding at 0.1 µM,CDK3,91%
same,remaining binding at 0.1 µM,MELK,100%
same,remaining binding at 0.1 µM,VRK2,97%
same,remaining binding at 0.1 µM,ADCK4,61%
same,remaining binding at 0.1 µM,[1],79%
same,remaining binding at 0.1 µM,AURKC,100%
same,remaining binding at 0.1 µM,LATS2,100%
same,remaining binding at 0.1 µM,MEK6,100%
